Measurements published in ChEMBL document CHEMBL1201862, “PubChem BioAssay data set” (2004).
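The compound was tested at five concentrations on cells cultured in 96-well plates, with a 48-hour exposure period. The concentration for 50% growth inhibition is given as GI50.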 Activity calls are given as the source filed them. Rule as the data show it: active = GI50 up to about 1.1 µM and inactive = higher.

How the values were obtained:
Experiment in all cases: NCI-60 cell line screen, 48 h
HOP-92 = tested on: HOP-92
OVCAR-4 = tested on: OVCAR-4
MOLT-4 = tested on: MOLT-4
SR = tested on: SR
NCI/ADR-RES = tested on: NCI/ADR-RES
OVCAR-5 = tested on: OVCAR-5
SK-MEL-2 = tested on: SK-MEL-2
SK-MEL-5 = tested on: SK-MEL-5
NCI-H460 = tested on: NCI-H460
Malme-3M = tested on: Malme-3M
OVCAR-3 = tested on: OVCAR-3
HCT-116 = tested on: HCT-116
CCRF-CEM = tested on: CCRF-CEM
IGROV-1 = tested on: IGROV-1
A549 = tested on: A549
HCT-15 = tested on: HCT-15
MDA-N = tested on: MDA-N
RPMI-8226 = tested on: RPMI-8226
UACC-257 = tested on: UACC-257
DLD-1 = tested on: DLD-1

SMILES	GI50 (HOP-92)	GI50 (OVCAR-4)	GI50 (MOLT-4)	GI50 (SR)	GI50 (NCI/ADR-RES)	GI50 (OVCAR-5)	GI50 (SK-MEL-2)	GI50 (SK-MEL-5)	GI50 (NCI-H460)	GI50 (Malme-3M)	GI50 (OVCAR-3)	GI50 (HCT-116)	GI50 (CCRF-CEM)	GI50 (IGROV-1)	GI50 (A549)	GI50 (HCT-15) [µM]	GI50 (MDA-N)	GI50 (RPMI-8226)	GI50 (UACC-257)	GI50 (DLD-1)
NC1(C(=O)O)CCCC1C(=O)O (stereo not given)	> 100 µM (inactive)	> 100 µM (inactive)	> 100 µM (inactive)	> 100 µM (inactive)	> 100 µM (inactive)	> 100 µM (inactive)	> 100 µM (inactive)	> 100 µM (inactive)	> 100 µM (inactive)	> 100 µM (inactive)	> 100 µM (inactive)	> 100 µM (inactive)	> 100 µM (inactive)	> 100 µM (inactive)	> 100 µM (inactive)	> 100	> 100 µM (inactive)	> 100 µM (inactive)	> 100 µM (inactive)	
COC(=O)/C=C/c1ccc2c(c1)[C@H](C(=O)OC)[C@@H](c1ccc(O)cc1)O2	59 µM (inactive)	29.3 µM (inactive)	8.45 µM (inactive)	6.62 µM (inactive)	32.3 µM (inactive)	> 100 µM (inactive)	4.62 µM (inactive)	14.2 µM (inactive)	35.1 µM (inactive)	20.6 µM (inactive)	8.91 µM (inactive)	38.5 µM (inactive)	9.06 µM (inactive)	27.4 µM (inactive)	34.2 µM (inactive)	5.02	5.06 µM (inactive)	> 10 µM (inactive)	32.5 µM (inactive)	
Cc1cccc(C(=O)O)c1C(=O)c1cccc2ccccc12		> 100 µM (inactive)	33.1 µM (inactive)	> 100 µM (inactive)		> 100 µM (inactive)	98.2 µM (inactive)	> 100 µM (inactive)	> 100 µM (inactive)	> 100 µM (inactive)	> 100 µM (inactive)	> 100 µM (inactive)	> 100 µM (inactive)	> 100 µM (inactive)	> 100 µM (inactive)	37.7			> 100 µM (inactive)	> 100 µM (inactive)
CC(C)C(/C=C/c1ccccc1)=N\NC(=O)N/N=C(/C=C/c1ccccc1)C(C)C	20.7 µM (inactive)	35 µM (inactive)	16.4 µM (inactive)	20.8 µM (inactive)		38.2 µM (inactive)	19.9 µM (inactive)	21.7 µM (inactive)	14.4 µM (inactive)			19.1 µM (inactive)	28.2 µM (inactive)	39.1 µM (inactive)	23.1 µM (inactive)	20.7		24.3 µM (inactive)	44 µM (inactive)	34.8 µM (inactive)
CC(C)(C)c1cc(OCc2nn3c(Cc4ccccc4)nnc3s2)c(Cl)cc1OCc1nn2c(Cc3ccccc3)nnc2s1	16.2 µM (inactive)	19.8 µM (inactive)	8.93 µM (inactive)	39.9 µM (inactive)	39.3 µM (inactive)	60.8 µM (inactive)	30.8 µM (inactive)	8.65 µM (inactive)	28.2 µM (inactive)	12 µM (inactive)	15.6 µM (inactive)	16.6 µM (inactive)	6.67 µM (inactive)	20.7 µM (inactive)	29.7 µM (inactive)	19.6	36.5 µM (inactive)	10.6 µM (inactive)	23.6 µM (inactive)	
O=C(CN(Cc1ccccc1)Cc1ccccc1)N1CCc2c([nH]c3ccccc23)C1c1cccnc1 (stereo not given)	2.79 µM (inactive)	3.99 µM (inactive)	2.26 µM (inactive)	5.28 µM (inactive)		7.38 µM (inactive)		7.23 µM (inactive)	5.58 µM (inactive)		5.82 µM (inactive)	3.74 µM (inactive)	4.11 µM (inactive)	29.7 µM (inactive)	4.59 µM (inactive)	5.64		1.86 µM (inactive)	13.2 µM (inactive)	6.4 µM (inactive)
Cc1cccc(CC(C)(C)C)c1NC(=O)C(=O)C(C(=O)c1ccc2ccccc2c1)C1OC(=O)c2ccccc21 (stereo not given)	1.14 µM (inactive)	41.5 µM (inactive)		3.72 µM (inactive)		15.2 µM (inactive)	14.4 µM (inactive)	13.1 µM (inactive)	4.13 µM (inactive)	10.8 µM (inactive)	58.5 µM (inactive)	6.73 µM (inactive)		16.7 µM (inactive)	12.4 µM (inactive)	15.3		10.1 µM (inactive)	12 µM (inactive)	14 µM (inactive)
COc1cc2c(cc1OC)[C@]1(O)C(=O)c3ccc4c(c3O[C@@H]1CO2)C[C@H](C(C)(C)O)O4	33.6 µM (inactive)		48.9 µM (inactive)			> 100 µM (inactive)	> 100 µM (inactive)		> 100 µM (inactive)	8.89 µM (inactive)	74.3 µM (inactive)	26.2 µM (inactive)	68.1 µM (inactive)	> 100 µM (inactive)	> 100 µM (inactive)			36.5 µM (inactive)	6.95 µM (inactive)	> 100 µM (inactive)
